{
  "source": "patent US7326710B2",
  "about": "“Aralkyl formyl-alkyl piperazine derivatives and their uses as a cerebral nerve protective agent” (Shanghai Institute of Pharmaceutical Industry, priority 2002, dated 2008)",
  "key": {"[1]": {"system": "global cerebral ischemia in rats", "assay": "Global cerebral ischemia in rats, bilateral common carotid artery occlusion with exsanguine hypotension", "type": "in vivo", "conditions": "reperfusion after 10 min occlusion", "source_text": "The animal models of the bilateral common carotid artery occlusion with exsanguine hypotension in the rats were used to investigate the effect against global cerebral ischemia.\nMethods: The animals were administrated four compounds (IV-2, 23, 34, 36) orally for 3 days before the experiment. […]"}, "[2]": {"system": "primary culture of rat cerebral cortical neuronal cells", "assay": "Effect of NMDA on neurons, LDH activity in supernatant", "type": "cell-based", "conditions": "n = 12", "source_text": "Primary culture of rat cerebral cortical neuronal cells were used. […] This is further evidence that IV-23 is a new NMDA receptor antagonist, and has anti-cerebral ischemic injury functions as well."}, "[3]": {"system": "global cerebral ischemia-reperfusion injury in rats", "assay": "Global cerebral ischemia-reperfusion in rats, four arteries reversible occlusion", "type": "in vivo", "conditions": "Nimodipine 1 mg/kg", "source_text": "The effect of IV-23 on cerebral ischemia-reperfusion in rats was studied using four arteries reversible occlusion by measuring the recovering time of the electroencephalogram and the righting reflex (a short time indicates a strong effect)."}, "[4]": {"system": "focal cerebral ischemia in rats", "assay": "Focal cerebral infarction, electrical coagulation to occlude MCA", "type": "in vivo", "parameters": "The neurological deficit score After the operation / The neurological deficit score 24 h: scale not given here", "conditions": "Nimodipine, dose not given", "description": "a. The Focal Cerebral-Infarction of Using Electrical Coagulation to Occlude MCA:\nFor the 5 mg/kg group, the percentage of the rat's infarct size was decreased, but the difference is not significant (p=0.098). The effect is not significant for the Nimodipine mg/kg."}, "[5]": {"system": "focal cerebral ischemia in rats", "assay": "Focal cerebral ischemia in rats by occlusion of middle cerebral artery (MCA)", "type": "in vivo", "conditions": "20 mg/kg p.o.", "description": "The focal ischemia rat model by occlusion of middle cerebral artery (MCA) was used to determine the protective effects of the compounds on focal cerebral ischemia. The infarct size after focal cerebral ischemia and the weight percentage of cerebral hemisphere were calculated to evaluate the compounds' effects on focal cerebral ischemia."}},
  "data": [
    {"molecule": "O=C(CN1CCN(CC(O)c2ccccc2)CC1)c1ccccc1", "note": "(stereo not shown) [IV-36, N^1-phenacyl-N^4-(2-phenylethyl-2-ol) piperazine]", "values": [
      {"measurement": "Recovery time of EEG", "setting": "[1]; 20 mg/kg orally for 3 days", "result": 20.10, "unit": "min"}
    ]},
    {"molecule": "CN[C@H](CC(=O)O)C(=O)O", "note": "[NMDA, N-methyl-D-aspartate]", "values": [
      {"measurement": "LDH activities (U/g protein) (mean ± SEM)", "setting": "[2]; NMDA 0.1 mmol/L", "result": "1.51 ± 0.25", "unit": "U/g protein"},
      {"measurement": "LDH activities (U/g protein) (mean ± SEM)", "setting": "[2]; NMDA 0.5 mmol/L", "result": "1.63 ± 0.19", "unit": "U/g protein"},
      {"measurement": "LDH activities (U/g protein) (mean ± SEM)", "setting": "[2]; NMDA 1 mmol/L", "result": "1.74 ± 0.17", "unit": "U/g protein"},
      {"measurement": "LDH activities (U/g protein) (mean ± SEM)", "setting": "[2]; NMDA 2 mmol/L", "result": "2.38 ± 0.31", "unit": "U/g protein"}
    ]},
    {"molecule": "COCCOC(=O)C1=C(C)NC(C)=C(C(=O)OC(C)C)C1c1cccc([N+](=O)[O-])c1", "note": "(stereo not shown) [Nimodipine, reference compound]", "values": [
      {"measurement": "Recovery time of EEG", "setting": "[1]; Nimodipine 1 mg/kg positive control", "result": "13.49 ± 5.55", "unit": "min"},
      {"measurement": "Time for electroencephalogram to disappear(S)", "setting": "[3]", "result": "396.0 ± 559.8^Δ S"},
      {"measurement": "Time for electroencephalogram to recover (S)", "setting": "[3]", "result": "3264.0 ± 336.4^Δ S"},
      {"measurement": "Time for righting reflex to recover (S)", "setting": "[3]", "result": "1284.0 ± 1319.8^Δ S"},
      {"measurement": "The neurological deficit score 24 h", "setting": "[4]", "result": "8.3 ± 2.0"},
      {"measurement": "The neurological deficit score After the operation", "setting": "[4]", "result": "9.7 ± 0.5"},
      {"measurement": "The percentage of infarction (%)", "setting": "[4]", "result": "20.5 ± 6.8", "unit": "%"},
      {"measurement": "The weight of infarct area", "setting": "[4]", "result": "0.15 ± 0.05", "unit": "g"},
      {"measurement": "Infarct volume", "setting": "[5]", "result": "0.188 ± 0.013", "unit": "g"},
      {"measurement": "Neurological deficit After operation", "setting": "[5]", "result": "9.3 ± 1.7"},
      {"measurement": "Neurological deficit 24 h", "setting": "[5]; 24 h after operation", "result": "9.0 ± 4.1"}
    ]}
  ]
}
